# What was measured:
# [1] = system: P-gp; assay: P-gp expression levels in small intestine by western blot analysis; assay type: in vivo, ICR mice; settings: mouse small intestine, intragastric, seven days; for P-gp expression compared with negative control: normalized to Na+-K+-ATPase
# Protocol: Healthy male ICR mice (18-22 g of body weight) were purchased from SPF Animal Centre of […] Medical University ([…], China). […] The drugs were administrated intragastrically for seven consecutive days. Membrane proteins were harvested by […] Membrane and Plasma Protein Purification Kit ([…], Nanjing, China), and the protein concentrations were determined using KeyGEN BCA Protein Quantitation Assay kit ([…], Nanjing, China). An equal quantity of protein (48 μg) from membrane protein was resolved using 7.5% SDS-PAGE gel and subsequently transferred onto nitrocellulose membranes (Bio-Trace, Auckland, New Zealand). […] Antibodies were both purchased from Abcam (Cambridge, United Kingdom). The membranes were incubated with horseradish peroxidase-conjugated AffiniPure Goat Anti-Rabbit IgG (ZSGB-BIO, Beijing, China) for 1 h and signals were observed using SuperSignal West Pico (Thermo Scientific, Waltham, MA). Western blotting bands intensity was quantified by densitometric analysis using Image J version 2 × (NIH Image Software, […]).
# [2] = system: ABC transporter coupling ATPase; assay: ABC transporter-related ATPase activity assay on small intestine membrane proteins; assay type: in vivo, mice; settings: mouse small intestine, intragastric, seven days, p < 0.05
# Excerpt: Healthy male ICR mice (18-22 g of body weight) were purchased from SPF Animal Centre of […] Medical University ([…], China). […] The drugs were administrated intragastrically for seven consecutive days.
# [3] = ref Wei et al. [2015]; cited from earlier work
# [4] = system: MDR1 mRNA; assay: MDR1 expression in small intestine determined by RT-qPCR; settings: mouse small intestine; intragastric, seven days; verapamil 40 mg/kg, ART-verapamil 1:1, ART-CHR all ratios, CHR alone 80 mg/kg; p < 0.01
# Protocol: All animals were housed in polycarbonate cages and acclimated in an environmentally controlled room (23 ± 2 °C, with adequate ventilation and a 12 h light/dark cycle) prior to use. All animals were provided with standard laboratory food and water before and during the experiments. […] The drugs were administrated intragastrically for seven consecutive days.
# The mice were euthanized by cervical vertebra dislocation. Small intestines were harvested and cleaned using normal saline at least three times. Total RNA was extracted from the mouse small intestine using E.Z.N.A.^TM Total RNA Kit (OMEGA Bio-Tek, Norcross, GA), in accordance with the instructions of the manufacturer. RNA concentrations were measured with a microplate spectrophotometer (Bio-RAD, Hercules, CA) at 260 nm. RNA quality was evaluated using electrophoresis in 1% agarose gels. Total RNA (3 μg) was reverse transcribed into first-strand complementary DNA (cDNA) using Thermo Scientific RevertAid First Strand cDNA Synthesis Kit (Thermo Scientific, Waltham, MA). Each cDNA sample (1 μL) was amplified with 12 μL Thermo Scientific Maxima SYBR Green qPCR Master Mix (2×). ROX Solution provided (Thermo Scientific, Waltham, MA) and 1 μmol of each primer. […]
# [5] = system: rat CYP3A; settings: ref Wei et al. [2015]; cited from earlier work
# [6] = system: Plasmodium berghei; parameters: method as in Wei et al. [2015]; settings: ref Wei et al. [2015]; cited from earlier work
Structure (SMILES),P-gp expression compared with negative control [1],"ATPase activity versus the vehicle ([2]; ART 40 mg/kg, verapamil 40 mg/kg)",effect of CHR on rat plasma concentration of ART [3],"P-gp expression levels compared with ART alone ([1]; ART-verapamil (1:1), ART-CHR (1:0.1, 1:1, 1:2, 1:4), CHR alone, p < 0.05 and p < 0.01)","ATPase activity compared with ART alone ([2]; ART-CHR 1:4 (40:160 mg/kg), CHR alone 80 mg/kg)",MDR1 mRNA expression compared with ART alone [4],manner of inhibition of rat CYP3A [5],effect of CHR on anti-malarial efficacy of ART [6]
"C[C@@H]1CC[C@H]2[C@@H](C)C(=O)O[C@@H]3O[C@@]4(C)CC[C@@H]1[C@]32OO4 [ART, artemisinin, reference compound]",up-regulated,remarkably decreased,,,,,,
"COc1cc(-c2oc3cc(OC)c(OC)c(O)c3c(=O)c2OC)ccc1O [CHR, Chrysosplenetin]",No significant difference,,significantly increased,significantly decreased,slight increase,reversed to normal levels,uncompetitive,significantly increased

# — paper PMC6130654 (Pharmaceutical Biology, 2016)
